Source: PMC12758333 (Autophagy, 2025)

Molecular target: T1, HMGB1 (HMGB1-His) (Homo sapiens, UniProt P09429)
T1 sequence (P09429 1-215): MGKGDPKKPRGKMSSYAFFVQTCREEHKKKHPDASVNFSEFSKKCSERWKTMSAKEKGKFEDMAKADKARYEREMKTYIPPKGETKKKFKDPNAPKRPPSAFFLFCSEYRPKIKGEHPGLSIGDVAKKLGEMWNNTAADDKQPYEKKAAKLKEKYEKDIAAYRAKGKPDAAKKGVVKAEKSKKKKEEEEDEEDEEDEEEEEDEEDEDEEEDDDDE
Experiment: microscale thermophoresis
Type: binding

CN1CCN(c2ccc(C(=O)Nc3n[nH]c4ccc(Cc5cc(F)cc(F)c5)cc34)c(NC3CCOCC3)c2)CC1 [entrectinib]
Kd: 65.5 µM
